Experimental data taken from ChEMBL document CHEMBL1649413, “Structure-activity relationship of 4(5)-aryl-2-amino-1H-imidazoles, N1-substituted 2-aminoimidazoles and imidazo[1,2-a]pyrimidinium salts as inhibitors of biofilm formation by Salmonella typhimurium and Pseudomonas aeruginosa” (J Med Chem, 2011).
pIC50: −log10 of the molar value. The source made the active and inactive calls. The rule behind the calls is not given here.

What was measured:
Salmonella typhimurium [1] = assay: Antibiofilm activity in Salmonella Typhimurium ATCC 14028 assessed as inhibition of biofilm formation at 25 degC after 24 hrs; assay type: functional, organism-based, Salmonella enterica subsp. enterica serovar Typhimurium; conditions: Salmonella enterica, ATCC 14028, 24 h
Pseudomonas aeruginosa [2] = assay: Antimicrobial activity against Pseudomonas aeruginosa assessed as inhibition of planktonic growth at 10 uM at 25 degC after 24 hrs; assay type: functional, organism-based
Pseudomonas aeruginosa [3] = assay: Antimicrobial activity against Pseudomonas aeruginosa assessed as inhibition of planktonic growth at 80 uM at 25 degC after 24 hrs; assay type: functional, organism-based
Salmonella typhimurium [4] = assay: Antimicrobial activity against Salmonella Typhimurium ATCC 14028 assessed as inhibition of planktonic growth at 40 uM at 25 degC after 24 hrs; assay type: functional, organism-based; conditions: Salmonella enterica subsp. enterica serovar Typhimurium
Salmonella typhimurium [5] = assay: Antimicrobial activity against Salmonella Typhimurium ATCC 14028 assessed as inhibition of planktonic growth at 80 uM at 25 degC after 24 hrs; assay type: functional, organism-based; conditions: Salmonella enterica subsp. enterica serovar Typhimurium
Salmonella typhimurium [6] = assay: Antimicrobial activity against Salmonella Typhimurium ATCC 14028 assessed as inhibition of planktonic growth at 20 uM at 25 degC after 24 hrs; assay type: functional, organism-based; conditions: Salmonella enterica subsp. enterica serovar Typhimurium
Pseudomonas aeruginosa [7] = assay: Antibiofilm activity in Pseudomonas aeruginosa assessed as inhibition of biofilm formation at 25 degC after 24 hrs; assay type: functional, organism-based
Salmonella typhimurium [8] = assay: Antimicrobial activity against Salmonella Typhimurium ATCC 14028 assessed as inhibition of planktonic growth at 10 uM at 25 degC after 24 hrs; assay type: functional, organism-based; conditions: Salmonella enterica subsp. enterica serovar Typhimurium
Pseudomonas aeruginosa [9] = assay: Antimicrobial activity against Pseudomonas aeruginosa assessed as inhibition of planktonic growth at 40 uM at 25 degC after 24 hrs; assay type: functional, organism-based
Pseudomonas aeruginosa [10] = assay: Antimicrobial activity against Pseudomonas aeruginosa assessed as inhibition of planktonic growth at 20 uM at 25 degC after 24 hrs; assay type: functional, organism-based
Pseudomonas aeruginosa [11] = assay: Antimicrobial activity against Pseudomonas aeruginosa assessed as inhibition of planktonic growth at 5 uM at 25 degC after 24 hrs; assay type: functional, organism-based
Salmonella typhimurium [12] = assay: Antimicrobial activity against Salmonella Typhimurium ATCC 14028 assessed as inhibition of planktonic growth at 4 uM at 25 degC after 24 hrs; assay type: functional, organism-based; conditions: Salmonella enterica subsp. enterica serovar Typhimurium
Pseudomonas aeruginosa [13] = assay: Antimicrobial activity against Pseudomonas aeruginosa assessed as inhibition of planktonic growth at 20 uM at 37 degC after 24 hrs; assay type: functional, organism-based
Pseudomonas aeruginosa [14] = assay: Antibiofilm activity in Pseudomonas aeruginosa assessed as inhibition of biofilm formation at 37 degC after 24 hrs; assay type: functional, organism-based
Salmonella typhimurium [15] = assay: Antimicrobial activity against Salmonella Typhimurium ATCC 14028 assessed as inhibition of planktonic growth at 400 uM at 25 degC after 24 hrs; assay type: functional, organism-based; conditions: Salmonella enterica subsp. enterica serovar Typhimurium
Salmonella typhimurium [16] = assay: Antibiofilm activity in Salmonella Typhimurium ATCC 14028 assessed as inhibition of biofilm formation at 37 degC after 24 hrs; assay type: functional, organism-based, Salmonella enterica subsp. enterica serovar Typhimurium; conditions: Salmonella enterica, ATCC 14028, 24 h
Pseudomonas aeruginosa [17] = assay: Antimicrobial activity against Pseudomonas aeruginosa assessed as inhibition of planktonic growth at 100 uM at 37 degC after 24 hrs; assay type: functional, organism-based
Pseudomonas aeruginosa [18] = assay: Antimicrobial activity against Pseudomonas aeruginosa assessed as inhibition of planktonic growth at 40 uM at 37 degC after 24 hrs; assay type: functional, organism-based
Salmonella typhimurium [19] = assay: Antimicrobial activity against Salmonella Typhimurium ATCC 14028 assessed as inhibition of planktonic growth at 200 uM at 25 degC after 24 hrs; assay type: functional, organism-based; conditions: Salmonella enterica subsp. enterica serovar Typhimurium

`CCCCCCCCCCCCCCn1c(-c2ccccc2)cnc1N` was tested, and the pIC50 (Salmonella typhimurium [1]) was 5.06, the inhibition (Pseudomonas aeruginosa [2]) was “inactive” and the inhibition (Pseudomonas aeruginosa [3]) was “inactive”. For the same compound, the inhibition (Salmonella typhimurium [4]) was “inactive”, the inhibition (Salmonella typhimurium [5]) was “inactive” and the inhibition (Salmonella typhimurium [6]) was “inactive”. For the same compound, the pIC50 (Pseudomonas aeruginosa [7]) was 5.01, the inhibition (Salmonella typhimurium [8]) was “inactive” and the inhibition (Pseudomonas aeruginosa [9]) was “inactive”.
In the case of `Nc1nc(-c2ccccc2)c(-c2ccccc2)n1C1CCCCC1`, the pIC50 (Salmonella typhimurium [1]) was 4.62, the inhibition (Salmonella typhimurium [4]) was “inactive” and the inhibition (Salmonella typhimurium [5]) was “inactive”. The inhibition (Salmonella typhimurium [6]) was “inactive”, the pIC50 (Pseudomonas aeruginosa [7]) was 5.30 and the inhibition (Salmonella typhimurium [8]) was “inactive”. The inhibition (Pseudomonas aeruginosa [10]) was “inactive” and the inhibition (Pseudomonas aeruginosa [9]) was “inactive”.
In the case of `CCCCCn1c(-c2ccc(Cl)cc2)cnc1N`, the pIC50 (Salmonella typhimurium [1]) was 5.10, the inhibition (Pseudomonas aeruginosa [2]) was “inactive” and the inhibition (Salmonella typhimurium [4]) was “Active”. The inhibition (Salmonella typhimurium [6]) was “Active”, the pIC50 (Pseudomonas aeruginosa [7]) was 5.22 and the inhibition (Salmonella typhimurium [8]) was “inactive”. For the same compound, the inhibition (Pseudomonas aeruginosa [11]) was “inactive”, the inhibition (Pseudomonas aeruginosa [10]) was “inactive” and the inhibition (Salmonella typhimurium [12]) was “inactive”.
For `CCCCCCCCCCCCn1c(-c2ccccc2)cnc1N`, the pIC50 (Salmonella typhimurium [1]) was 5.15, the inhibition (Pseudomonas aeruginosa [2]) was “inactive” and the inhibition (Pseudomonas aeruginosa [3]) was “inactive”. For the same compound, the inhibition (Salmonella typhimurium [6]) was “Active”, the pIC50 (Pseudomonas aeruginosa [7]) was 4.89 and the inhibition (Salmonella typhimurium [8]) was “Active”. The inhibition (Pseudomonas aeruginosa [9]) was “inactive” and the inhibition (Salmonella typhimurium [12]) was “inactive”.
With `CCCCCCCCn1c(-c2ccc([N+](=O)[O-])cc2)cnc1N` the pIC50 (Salmonella typhimurium [1]) was 4.45, the inhibition (Salmonella typhimurium [4]) was “Active” and the inhibition (Salmonella typhimurium [5]) was “Active”.
`Nc1ncc(-c2ccc(Cl)cc2)[nH]1` was tested, and the pIC50 (Salmonella typhimurium [1]) was 4.80, the inhibition (Salmonella typhimurium [4]) was “inactive” and the inhibition (Pseudomonas aeruginosa [13]) was “inactive”. The pIC50 (Pseudomonas aeruginosa [7]) was 5.46, the inhibition (Pseudomonas aeruginosa [11]) was “inactive” and the pIC50 (Pseudomonas aeruginosa [14]) was 4.53. For the same compound, the inhibition (Salmonella typhimurium [15]) was “Active”, the inhibition (Salmonella typhimurium [12]) was “inactive” and the pIC50 (Salmonella typhimurium [16]) was 4.52.
With `Nc1ncc(-c2ccc(-c3ccccc3)cc2)n1C1CCCC1` the pIC50 (Salmonella typhimurium [1]) was 5.12, the inhibition (Salmonella typhimurium [4]) was “Active” and the inhibition (Salmonella typhimurium [5]) was “Active”. For the same compound, the inhibition (Salmonella typhimurium [6]) was “Active”, the pIC50 (Pseudomonas aeruginosa [7]) was 3.45 and the inhibition (Salmonella typhimurium [8]) was “inactive”. For the same compound, the inhibition (Salmonella typhimurium [12]) was “inactive”.
In the case of `CCCCCCCCCn1c(-c2ccccc2)cnc1N`, the pIC50 (Salmonella typhimurium [1]) was 5.22, the inhibition (Pseudomonas aeruginosa [2]) was “inactive” and the inhibition (Salmonella typhimurium [6]) was “Active”. For the same compound, the pIC50 (Pseudomonas aeruginosa [7]) was 5.08, the inhibition (Salmonella typhimurium [8]) was “Active” and the inhibition (Pseudomonas aeruginosa [11]) was “inactive”. The inhibition (Pseudomonas aeruginosa [10]) was “Active” and the inhibition (Salmonella typhimurium [12]) was “inactive”.
For `CCn1c(-c2ccc(Cl)cc2)cnc1N`, the pIC50 (Salmonella typhimurium [1]) was 4.27, the inhibition (Pseudomonas aeruginosa [2]) was “inactive” and the inhibition (Salmonella typhimurium [4]) was “Active”. The inhibition (Salmonella typhimurium [5]) was “Active”, the inhibition (Salmonella typhimurium [6]) was “inactive” and the pIC50 (Pseudomonas aeruginosa [7]) was 4.95. The inhibition (Salmonella typhimurium [8]) was “inactive”, the inhibition (Pseudomonas aeruginosa [10]) was “inactive” and the inhibition (Salmonella typhimurium [12]) was “inactive”.
For `Cc1ccc(-c2[nH]c(N)nc2-c2ccc(Cl)cc2)cc1`, the pIC50 (Salmonella typhimurium [1]) was 4.89, the inhibition (Salmonella typhimurium [4]) was “Active” and the inhibition (Salmonella typhimurium [5]) was “Active”. For the same compound, the inhibition (Salmonella typhimurium [6]) was “Active”, the inhibition (Salmonella typhimurium [8]) was “Active” and the inhibition (Salmonella typhimurium [12]) was “inactive”.
In the case of `CCCCCCCCn1c(-c2ccc(SC)cc2)cnc1N`, the pIC50 (Salmonella typhimurium [1]) was 5.17, the inhibition (Pseudomonas aeruginosa [2]) was “Active” and the pIC50 (Pseudomonas aeruginosa [7]) was 5.55. For the same compound, the inhibition (Salmonella typhimurium [8]) was “Active”, the inhibition (Pseudomonas aeruginosa [11]) was “inactive” and the inhibition (Pseudomonas aeruginosa [10]) was “Active”. The inhibition (Salmonella typhimurium [12]) was “inactive”.
For `Nc1ncc(-c2ccc(F)cc2)[nH]1`, the pIC50 (Salmonella typhimurium [1]) was 4.07, the inhibition (Pseudomonas aeruginosa [2]) was “inactive” and the inhibition (Salmonella typhimurium [4]) was “Active”. The inhibition (Pseudomonas aeruginosa [13]) was “inactive”, the pIC50 (Pseudomonas aeruginosa [7]) was 4.82 and the inhibition (Pseudomonas aeruginosa [17]) was “inactive”. For the same compound, the inhibition (Pseudomonas aeruginosa [18]) was “inactive”, the inhibition (Salmonella typhimurium [19]) was “Active” and the inhibition (Pseudomonas aeruginosa [9]) was “inactive”. For the same compound, the pIC50 (Pseudomonas aeruginosa [14]) was 4.32, the inhibition (Salmonella typhimurium [12]) was “inactive” and the pIC50 (Salmonella typhimurium [16]) was 3.62.
With `CCCCCCCC[n+]1c(-c2cccc3ccccc23)cn2cccnc21.[O-][Cl+3]([O-])([O-])[O-]` the pIC50 (Salmonella typhimurium [1]) was 5.22, the inhibition (Pseudomonas aeruginosa [2]) was “Active” and the pIC50 (Pseudomonas aeruginosa [7]) was 5.17. The inhibition (Salmonella typhimurium [8]) was “Active”, the inhibition (Pseudomonas aeruginosa [11]) was “inactive” and the inhibition (Pseudomonas aeruginosa [10]) was “Active”. For the same compound, the inhibition (Pseudomonas aeruginosa [9]) was “Active” and the inhibition (Salmonella typhimurium [12]) was “inactive”.
In the case of `Nc1ncc(-c2ccccc2)n1C1CCCCC1`, the pIC50 (Salmonella typhimurium [1]) was 4.07, the inhibition (Pseudomonas aeruginosa [3]) was “inactive” and the pIC50 (Pseudomonas aeruginosa [7]) was 5.34. For the same compound, the inhibition (Pseudomonas aeruginosa [11]) was “inactive” and the inhibition (Pseudomonas aeruginosa [9]) was “inactive”.
For `CCCCCn1c(-c2ccccc2)cnc1N`, the pIC50 (Salmonella typhimurium [1]) was 4.32, the inhibition (Pseudomonas aeruginosa [2]) was “inactive” and the inhibition (Pseudomonas aeruginosa [3]) was “inactive”. For the same compound, the inhibition (Salmonella typhimurium [4]) was “inactive”, the inhibition (Salmonella typhimurium [5]) was “Active” and the inhibition (Salmonella typhimurium [6]) was “inactive”. The pIC50 (Pseudomonas aeruginosa [7]) was 5.68, the inhibition (Salmonella typhimurium [8]) was “inactive” and the inhibition (Pseudomonas aeruginosa [11]) was “inactive”. For the same compound, the inhibition (Pseudomonas aeruginosa [9]) was “inactive” and the inhibition (Salmonella typhimurium [12]) was “inactive”.
